{"source": "paper PMC7082314", "about": "(Frontiers in Cellular and Infection Microbiology, 2020)", "target": "BfpR-His6 (Francisella tularensis, UniProt A0Q7V5)", "sequence (A0Q7V5 1-229)": "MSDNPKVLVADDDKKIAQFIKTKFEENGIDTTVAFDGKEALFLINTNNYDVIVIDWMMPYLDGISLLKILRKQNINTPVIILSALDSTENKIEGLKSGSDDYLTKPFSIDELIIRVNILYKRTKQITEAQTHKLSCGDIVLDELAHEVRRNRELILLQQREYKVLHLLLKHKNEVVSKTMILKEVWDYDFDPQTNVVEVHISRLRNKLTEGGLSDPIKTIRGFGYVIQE", "conditions": "5 uM protein (printed 'Five micrometers'), 2X SYPRO Orange; heated to 95 °C", "data": [{"smiles": "COc1ccc(O)c2ccccc12", "note": "[walrycin A, 4-methoxy-1-naphthol]", "values": [{"measurement": "thermal shift", "value": "a protein population not seen in the presence of the control compounds appears"}]}]}
